# Laboratory results from patent publication US20120232003A1, “COMPOSITIONS AND METHODS FOR DIABETES TREATMENT” (priority 2009, published 2012).
# What was measured:
# male lean C57BL6 mice [1] = experiment: Oral glucose tolerance test, blood glucose levels (Example 1); format: in vivo; conditions: 5 μg/mouse, oral glucose 3 g/kg
# Description: (§1) In this experiment, male lean C57BL6 mice were used. […] The mice were randomized to achieve similar body weight and glucose for each group before dosing. All animals were subjected to fasting at the start of the dark period (Group 1-4). Food was removed, and bedding materials were replaced with fresh bedding to eliminate any residual food. Animals remained under fast until the 120 minute time point was taken. Water was made available ad libitum throughout the study. A 30 mg/mL stock solution of melatonin (30 mg melatonin in 1 ml of pure sesame oil) was made. From this stock solution, 10 μL of stock was taken and diluted with 990 μL of sesame oil, resulting in a solution concentration of 300 μg/ml. This was then diluted 1:18, resulting in a final concentration of 16.6-16.7 μg/mL. Mice received 0.3 ml by subcutaneous injection (5 μg/mouse). […] Insulin and blood glucose levels were measured by standard methods. The oral glucose tolerance test was carried out as follows using a glucose oxidase reaction measured by a Precision glucometer. […] Blood glucose level of all animals in Group 1-4 were measured at time 0 (right before the glucose dosing), 5, 10, 20, 30, 60 and 120 minutes post glucose dosing (7 time points). Insulin levels were also measured at 0, 30, 60, and 120 minutes from separate collections of tail vein blood obtained post glucose dosing by Crystal Chemistry ELISA.
# male lean C57BL6 mice [2] = experiment: Insulin levels post glucose dosing by ELISA (Example 1); format: in vivo; conditions: 5 μg/mouse, oral glucose 3 g/kg
# Description: as §1
# male C57BL6 DIO mice = experiment: Oral glucose tolerance test, blood glucose levels (Example 2); format: in vivo
# Description: In this experiment, male C57BL6 DIO mice (10-11 weeks old, n=52) were used and maintained on a high fat diet. A total of 49 animals were used in this study. […] The mice were randomized to achieve similar body weight and glucose for each group before dosing. All animals were subjected to fasting at the start of the dark period (Groups 1-7). Food was removed, and bedding materials were replaced with fresh bedding to eliminate any residual food. Animals remained under fast until the 120 minute time point was taken. Water was made available ad libitum throughout the study. A 30 mg/mL stock solution of melatonin (30 mg melatonin in 1 ml of pure sesame oil) was made. From this stock solution, 10 μL of stock was taken and diluted with 990 μL of sesame oil, resulting in a solution concentration of 300 μg/ml. This was then diluted 1:18, resulting in a final concentration of 16.6-16.7 μg/mL. The doses of melatonin were adjusted based on the weight of the mouse. […] Blood glucose levels were measured by standard methods. […] Blood glucose level of all animals in Groups 1-7 were measured at time 0 (right before the glucose dosing), 15, 30, 60 and 120 minutes post glucose dosing (5 time points). Body weight was recorded twice per week prior to the study, and before the blood glucose level measurements. […]
# [3] = tested on: mouse C2C12 skeletal muscle cells; conditions: cited from earlier work
# [4] = tested on: rat insulinoma cells (INS1); conditions: cited from earlier work
# rat model of diabetes = conditions: cited from earlier work
# [5] = cells exposed to melatonin and GLP-1 at the same time
# [6] = overnight pretreatment with melatonin
SMILES,"glucose levels compared to vehicle alone (male lean C57BL6 mice [1]; 1-hour melatonin dose, SC -1 h, FIG. 1C)","blood glucose levels compared to vehicle alone (male lean C57BL6 mice [1]; 12-hour sustained melatonin dose, SC -12 h, FIG. 1A)","insulin levels (male lean C57BL6 mice [2]; 1-hour melatonin dose, SC -1 h, FIG. 1D)","insulin levels compared to vehicle alone (male lean C57BL6 mice [2]; 12-hour melatonin dose, SC -12 h, FIG. 1B)",effect on the anti-diabetic action of sitagliptin (male C57BL6 DIO mice; 12-hour melatonin dose SC with sitagliptin 10 mg/kg PO),glucose transport [3],"GLP-1 induced gene expression [4, 5]","GLP-1 induced insulin secretion [4, 5]","cAMP-response element-mediated gene expression in response to GLP-1 or forskolin [4, 6]","insulin secretion in response to GLP-1 or forskolin [4, 6]","insulin-promoter-driven luciferase gene expression in response to GLP-1 or forskolin [4, 6]",blood glucose levels (rat model of diabetes),protection against hyperglycemia-induced oxidative damage (rat model of diabetes),"blood glucose levels (male C57BL6 DIO mice; sitagliptin 10 mg/kg alone, PO -1 h, FIG. 2B)"
"COc1ccc2[nH]cc(CCNC(C)=O)c2c1 [melatonin, N-acetyl-5-methoxyindole-3-ethaneamine]",not appreciably different,significantly decreased,lower,much higher,does not inhibit,stimulates,antagonized,antagonized,marked increase,marked increase,marked increase,without affecting,limited protection,–
N[C@@H](CC(=O)N1CCn2c(nnc2C(F)(F)F)C1)Cc1cc(F)c(F)cc1F [Sitagliptin],–,–,–,–,–,–,–,–,–,–,–,–,–,decrease
